In PMC4979595, “Pilot PET Study to Assess the Functional Interplay Between ABCB1 and ABCG2 at the Human Blood–Brain Barrier” (Clinical Pharmacology and Therapeutics, 2016):
“And” between values parts separate entries of the source, which are not always exact repeats. Equal values may be shown once. Read-outs that look alike come from different tables or passages of the source. Marks after values point to notes of the source that are not given here.

Columns and labels:
[1] = Plasma protein binding by ultrafiltration; conditions: similar in baseline and ABCB1 inhibition scans, high nonspecific filter binding
[2] = Plasma time-activity curve AUC of radiotracers; conditions: c.421CC
Description: (§1) A whole brain gray matter region of interest was defined on individual magnetic resonance images acquired in all study participants (T1‐weighted Achieva 3.0T scanner; Philips Medical Systems, Best, The Netherlands) using the Hammersmith n30r83 3D maximum probability atlas of the human brain.43 In addition, the pituitary gland was manually delineated.

[3] = Radiolabeled metabolites / unchanged radiotracer in plasma during PET (solid-phase extraction); conditions: 60 minutes after injection, c.421CC subjects
[4] = system: ABCB1 and ABCG2 at the human BBB; test: PET brain distribution of radiotracers, baseline scan and scan during ABCB1 inhibition with tariquidar infusion; conditions: for K 1 / k 2 / k 3 / k 4: 2T4K model; for K 1 / k 2 / k 3 / k 4 / V T (2T4K) / V T (Logan): whole brain; for whole brain V T (Logan) lower than V T (Logan) in the pituitary gland: c.421CC subjects
Description: as §1

[5] = system: ABCB1 and ABCG2 at the human BBB; conditions: in vivo
Description: as §1

in vitro = conditions: human, plasma
human ABCG2 = target: T1, human ABCG2 (Homo sapiens, UniProt Q9UNQ0); test: In vitro uptake assay in MDCK-ABCG2 cells: tariquidar inhibition of ABCG2-mediated transport; assay type: cell-based; conditions: for IC50: IC50 of tariquidar for inhibition of ABCG2 transport, 120 min uptake
T1 construct: P. Borst and Dr. A. Schinkel (Netherlands Cancer Institute); host or cells: MDCK-II (MDCK-ABCG2)
T1 sequence (Q9UNQ0 1-655): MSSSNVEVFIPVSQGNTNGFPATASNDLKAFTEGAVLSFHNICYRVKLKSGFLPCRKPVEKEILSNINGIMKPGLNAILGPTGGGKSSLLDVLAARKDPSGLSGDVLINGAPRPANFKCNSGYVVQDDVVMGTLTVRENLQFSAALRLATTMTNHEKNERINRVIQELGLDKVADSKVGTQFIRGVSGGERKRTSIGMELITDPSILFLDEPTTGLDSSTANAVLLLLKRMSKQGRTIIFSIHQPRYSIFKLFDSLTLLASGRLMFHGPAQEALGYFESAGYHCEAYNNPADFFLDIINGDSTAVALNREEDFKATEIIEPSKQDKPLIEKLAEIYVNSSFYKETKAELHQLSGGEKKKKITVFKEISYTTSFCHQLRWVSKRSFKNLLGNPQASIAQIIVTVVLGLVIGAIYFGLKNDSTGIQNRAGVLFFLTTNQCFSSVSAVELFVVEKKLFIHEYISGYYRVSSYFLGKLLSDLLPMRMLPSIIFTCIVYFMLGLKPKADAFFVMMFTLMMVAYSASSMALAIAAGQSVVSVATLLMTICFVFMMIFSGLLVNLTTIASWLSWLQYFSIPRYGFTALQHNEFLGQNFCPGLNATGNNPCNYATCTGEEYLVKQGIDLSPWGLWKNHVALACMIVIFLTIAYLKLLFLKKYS
Description: LLC‐PK1 cells transduced with human ABCB1 (LLC‐ABCB1) and MDCK‐II cells transduced with human ABCG2 (MDCK‐ABCG2) were kindly provided by Prof. P. Borst and Dr. A. Schinkel (Netherlands Cancer Institute, Amsterdam, Netherlands). Culturing of the cells and testing of vincristine sulfate resistance (0.64 μmol/L) for LLC‐ABCB1 cells and mitoxantrone resistance (20 μmol/L) for MDCK‐ABCG2 cells was performed as described previously.46
Cells were seeded with a density of 0.3 × 10^6 cells/cm^2 on 96‐well plates (white Isoplates for liquid scintillation counting, Perkin Elmer, Rodgau, Germany). Then 5–7 days after the cells reached 100% confluence, the experiment was initiated with 1‐hour preincubation at 37°C, 5% carbon dioxide, and 95% humidity, for which culture medium was replaced by serum‐free Opti‐MEM (Gibco/Life Technologies, Darmstadt, Germany). […] After 120 minutes (37°C, 5% carbon dioxide, 95% humidity), cells were transferred on ice, washed twice with ice‐cold phosphate‐buffered saline before lysis buffer (25 mmol/L Tris, pH 8, 50 mmol/L sodium chloride, 0.5% (w/v) deoxycholic acid, 0.5% (w/v) Triton X‐100) supplemented with complete protease inhibitor (Roche, Mannheim, Germany) was added and protein concentrations in the respective wells were determined by using the Pierce BCA Protein Assay kit (ThermoScientific, Pittsburgh, PA).
With Prism 6.0 software (GraphPad Software, La Jolla, CA), a sigmoidal model with variable slope was used to analyze concentration–response relationships by nonlinear regression.

[6] = Safety monitoring: adverse events during study participation; assay type: in vivo, human; conditions: relationship with tariquidar administration could not be excluded
Description: During the PET study, heart rate and blood pressure were repeatedly measured and recorded. In addition, clinical laboratory blood and urine tests were performed. Adverse events were recorded.

human ABCB1 [7] = target: T2, human ABCB1 (Homo sapiens, UniProt P08183)
T2 sequence (P08183 whole entry): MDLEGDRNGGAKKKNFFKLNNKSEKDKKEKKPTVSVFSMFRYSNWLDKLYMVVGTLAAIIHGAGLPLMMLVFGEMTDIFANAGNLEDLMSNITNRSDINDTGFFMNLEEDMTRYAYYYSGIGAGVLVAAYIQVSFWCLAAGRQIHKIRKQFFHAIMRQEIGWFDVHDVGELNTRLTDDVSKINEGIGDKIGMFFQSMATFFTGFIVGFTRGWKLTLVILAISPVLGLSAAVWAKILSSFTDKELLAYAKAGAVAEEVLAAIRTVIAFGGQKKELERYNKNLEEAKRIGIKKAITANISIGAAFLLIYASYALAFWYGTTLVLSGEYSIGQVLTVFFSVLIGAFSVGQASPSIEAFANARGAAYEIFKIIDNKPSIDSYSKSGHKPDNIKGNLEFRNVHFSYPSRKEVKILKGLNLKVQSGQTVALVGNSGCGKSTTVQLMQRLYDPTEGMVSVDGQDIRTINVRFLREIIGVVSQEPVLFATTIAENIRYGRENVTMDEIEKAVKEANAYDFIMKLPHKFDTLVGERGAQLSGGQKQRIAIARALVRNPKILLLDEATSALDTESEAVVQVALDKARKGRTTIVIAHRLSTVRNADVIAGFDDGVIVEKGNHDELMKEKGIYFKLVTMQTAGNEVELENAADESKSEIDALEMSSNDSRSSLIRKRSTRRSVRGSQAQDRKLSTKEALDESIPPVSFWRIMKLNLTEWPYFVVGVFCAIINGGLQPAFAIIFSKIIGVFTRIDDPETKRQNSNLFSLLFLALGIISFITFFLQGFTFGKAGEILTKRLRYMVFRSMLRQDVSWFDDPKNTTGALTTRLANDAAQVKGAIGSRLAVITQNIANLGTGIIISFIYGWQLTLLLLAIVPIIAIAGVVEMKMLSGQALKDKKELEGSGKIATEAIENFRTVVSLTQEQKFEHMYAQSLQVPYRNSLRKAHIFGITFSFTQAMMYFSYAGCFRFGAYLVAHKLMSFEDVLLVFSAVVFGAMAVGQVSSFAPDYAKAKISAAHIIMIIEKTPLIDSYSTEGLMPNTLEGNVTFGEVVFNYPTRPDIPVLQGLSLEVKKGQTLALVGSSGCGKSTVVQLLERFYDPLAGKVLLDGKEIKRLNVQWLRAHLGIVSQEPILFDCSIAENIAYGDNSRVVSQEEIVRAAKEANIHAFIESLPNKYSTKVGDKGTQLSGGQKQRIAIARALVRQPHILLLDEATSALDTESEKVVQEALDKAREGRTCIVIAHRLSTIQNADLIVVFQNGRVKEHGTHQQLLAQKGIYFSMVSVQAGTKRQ

[8] = set-up: method as in earlier work; conditions: (R)-[^11C]verapamil group, no ABCG2 genotype available, data from previous study, cited from earlier work
ABCB1 at the human BBB = system: ABCB1 at the human BBB; set-up: method as in PMID 25669913; conditions: tariquidar plasma concentration; previously estimated; read-out: in vivo IC50 for inhibition of ABCB1 transport of (R)-[^11C]verapamil at the human BBB; cited from earlier work
human ABCB1 [9] = target: T2, human ABCB1; test: cell-based
[10] = Tariquidar plasma concentrations during second PET scan (LC-MS/MS)

**Q.** What does the source list for `COc1cc2c(cc1OC)CN(CCc1ccc(NC(=O)c3cccc4c(=O)c5cccc(OC)c5[nH]c34)cc1)CC2` [[^11C]elacridar]?
**A.** Plasma protein binding [1]: > 99%; AUC ABCB1 inhibition (plasma time-activity curve) ([2]; 0 to 60 min): 46.9 ± 8.0 SUV x min; AUC baseline (plasma time-activity curve) ([2]; 0 to 60 min): 37.2 ± 6.2 SUV x min; % change over baseline (plasma AUC) [2]: 27 ± 12%; percentage of unchanged radiotracer in plasma ([3]; baseline scans): 94.6 ± 2.3%; percentage of unchanged radiotracer in plasma ([3]; second PET scan (tariquidar infusion)): 94.7 ± 1.1%; K 1 ([4]; c.421CC ABCB1 inhibition): 0.013 ± 0.005 (8) mL/(g x min); k 2 ([4]; c.421CC ABCB1 inhibition): 0.302 ± 0.250 (31) 1/min; k 3 ([4]; c.421CC ABCB1 inhibition): 0.198 ± 0.050 (21) 1/min; k 4 ([4]; c.421CC ABCB1 inhibition): 0.016 ± 0.003 (13) 1/min; K 1 ([4]; c.421CC baseline): 0.006 ± 0.002 (9) mL/(g x min); k 2 ([4]; c.421CC baseline): 0.135 ± 0.050 (33) 1/min; k 3 ([4]; c.421CC baseline): 0.148 ± 0.040 (22) 1/min; k 4 ([4]; c.421CC baseline): 0.015 ± 0.004 (17) 1/min; whole brain V T (Logan) lower than V T (Logan) in the pituitary gland ([4]; scan 1 (baseline)): 13.2 ± 4.6 fold; whole brain V T (Logan) lower than V T (Logan) in the pituitary gland ([4]; scan 2 (ABCB1 inhibition)): 7.9 ± 2.1 fold; baseline whole brain V T (Logan) lower in humans than in rats ([4]; comparison with a previous preclinical study): ~2 fold; V T (Logan) in the pituitary gland during tariquidar infusion as compared with baseline scans ([4]; pituitary gland): not significantly different; increase in V T (Logan) in scan 2 ([4]; single c.421CA subject with the highest increase (scanned with both radiotracers)): 2.3 fold; V T (2T4K) ([4]; c.421CC ABCB1 inhibition): 0.676 ± 0.111 (6); V T (Logan) ([4]; c.421CC ABCB1 inhibition): 0.658 ± 0.098 (9); V T (2T4K) ([4]; c.421CC baseline): 0.492 ± 0.051 (9); V T (Logan) ([4]; c.421CC baseline): 0.478 ± 0.027 (6)

**Q.** Which “baseline whole brain V T (Logan) lower in humans than in rats” value ([5]; human compared with rat) does the source give for `COc1cc2c(cc1OC)CN(CCc1ccc(NC(=O)c3cc(OC)c(OC)cc3NC(=O)c3cnc4ccccc4c3)cc1)CC2` [[^11C]tariquidar] here?
**A.** ~2 fold

**Q.** What about the “V T (Logan)” value ([5]; human) of the same compound?
**A.** 0.40

**Q.** What about the “increase in V T (Logan) in scan 2” value ([5]; human) of the same compound?
**A.** 3.1 fold

**Q.** What about the fraction unbound (in vitro) of the same compound?
**A.** < 0.01

**Q.** Which IC50 (human ABCG2; [^3H]elacridar (1 nmol/L) as substrate) does the source give for `COc1cc2c(cc1OC)CN(CCc1ccc(NC(=O)c3cc(OC)c(OC)cc3NC(=O)c3cnc4ccccc4c3)cc1)CC2` [tariquidar] here?
**A.** 813 nM

**Q.** What about the IC50 (human ABCG2; [^3H]tariquidar (1 nmol/L) as substrate) of the same compound?
**A.** 310 nM

**Q.** What about the Hill slope (human ABCG2; [^3H]elacridar as substrate) of the same compound?
**A.** 1.1

**Q.** And the Hill slope (human ABCG2; [^3H]tariquidar as substrate)?
**A.** 1.1

**Q.** What about the “Adverse event: abdominal cramps and vomiting” value [6] of the same compound?
**A.** one

**Q.** What about the “Adverse event: collapse” value [6] of the same compound?
**A.** four

**Q.** What about the “Adverse event: dizziness” value [6] of the same compound?
**A.** two

**Q.** What about the “Adverse event: dysgeusia” value [6] of the same compound?
**A.** 10 subjects

**Q.** And the “Adverse event: headache” value [6]?
**A.** three

**Q.** And the “Adverse event: phlebitis” value [6]?
**A.** three

**Q.** And the IC50 (human ABCB1 [7])?
**A.** 17.1 nM

**Q.** And the “Tariquidar concentration in plasma of individual subjects” value (shortened to “Tariquidar concentration in plasma”) ([8]; end of PET)?
**A.** 3.76 µmol/L and 2.52 µmol/L and 4.11 µmol/L and 2.83 µmol/L and 3.38 µmol/L

**Q.** And the “Tariquidar concentration in plasma” value ([8]; middle of PET)?
**A.** 3.61 µmol/L and 2.71 µmol/L and 3.88 µmol/L and 2.85 µmol/L and 2.56 µmol/L

**Q.** And the “Tariquidar concentration in plasma” value ([8]; start of PET)?
**A.** 2.81 µmol/L and 1.70 µmol/L and 2.36 µmol/L and 1.91 µmol/L and 2.11 µmol/L

**Q.** And the IC50 (ABCB1 at the human BBB)?
**A.** 2300 ± 1000 nM

**Q.** What about the IC50 (human ABCB1 [9]) of the same compound?
**A.** 29.5 nM

**Q.** What about the “Tariquidar plasma concentration during the PET scan (average of three determinations)” value ([10]; [^11C]elacridar group, c.421CC, i.v. infusion, total dose 5.7 ± 0.8 mg/kg) of the same compound?
**A.** 2.6 ± 0.5 µmol/L

**Q.** And the “Tariquidar plasma concentration at the time of PET” value ([10]; [^11C]tariquidar group, c.421CA, i.v. infusion)?
**A.** 3.2 ± 0.4 µmol/L

**Q.** What about the “Tariquidar concentration in plasma” value ([10]; end of PET, [^11C]elacridar c.421CA) of the same compound?
**A.** 2.22 µmol/L

**Q.** What about the “Tariquidar concentration in plasma” value ([10]; end of PET, [^11C]elacridar c.421CC) of the same compound?
**A.** 2.45 µmol/L and 1.98 µmol/L and 2.58 µmol/L and 2.72 µmol/L and 4.03 µmol/L

**Q.** And the “Tariquidar concentration in plasma” value ([10]; end of PET, [^11C]tariquidar c.421CA)?
**A.** 3.67 µmol/L and 3.18 µmol/L and 2.24 µmol/L and 3.08 µmol/L and 3.79 µmol/L

**Q.** And the “Tariquidar concentration in plasma” value ([10]; end of PET, [^11C]tariquidar c.421CC)?
**A.** 2.71 µmol/L and 2.78 µmol/L and 3.13 µmol/L and 3.70 µmol/L

**Q.** And the “Tariquidar concentration in plasma” value ([10]; middle of PET, [^11C]elacridar c.421CA)?
**A.** 2.23 µmol/L

**Q.** And the “Tariquidar concentration in plasma” value ([10]; middle of PET, [^11C]elacridar c.421CC)?
**A.** 2.33 µmol/L and 2.55 µmol/L and 2.71 µmol/L and 2.43 µmol/L and 3.73 µmol/L

**Q.** What about the “Tariquidar concentration in plasma” value ([10]; middle of PET, [^11C]tariquidar c.421CA) of the same compound?
**A.** 3.93 µmol/L and 3.55 µmol/L and 3.31 µmol/L and 2.86 µmol/L and 3.57 µmol/L

**Q.** And the “Tariquidar concentration in plasma” value ([10]; middle of PET, [^11C]tariquidar c.421CC)?
**A.** 2.68 µmol/L and 2.09 µmol/L and 2.95 µmol/L and 2.70 µmol/L and 2.65 µmol/L

**Q.** What about the “Tariquidar concentration in plasma” value ([10]; start of PET, [^11C]elacridar c.421CA) of the same compound?
**A.** 1.94 ^a µmol/L

**Q.** And the “Tariquidar concentration in plasma” value ([10]; start of PET, [^11C]elacridar c.421CC)?
**A.** 2.67 µmol/L and 1.83 µmol/L and 1.71 µmol/L and 2.74 µmol/L and 2.73 µmol/L

**Q.** And the “Tariquidar concentration in plasma” value ([10]; start of PET, [^11C]tariquidar c.421CA)?
**A.** 3.70 µmol/L and 2.61 µmol/L and 2.87 ^a µmol/L and 2.47 µmol/L and 2.80 µmol/L

**Q.** And the “Tariquidar concentration in plasma” value ([10]; start of PET, [^11C]tariquidar c.421CC)?
**A.** 2.91 µmol/L and 2.17 µmol/L and 2.65 µmol/L and 2.67 µmol/L and 2.64 µmol/L
